Tests used:
[1] = molecular target: T1, intracellular tyrosinase in melanoma cells from B16 mice (Mus musculus, UniProt P11344); test: Effect on intracellular tyrosinase activity in melanoma cells from B16 mice; assay type: cell-based; conditions: 3 days, n = 4, read-out: Inhibitory rate for tyrosinase activity
T1 construct: B16 melanin cells were adjusted with DMEM cell culture medium; endogenous in cells; host or cells: B16 mouse melanoma cells
T1 sequence (P11344 19-533): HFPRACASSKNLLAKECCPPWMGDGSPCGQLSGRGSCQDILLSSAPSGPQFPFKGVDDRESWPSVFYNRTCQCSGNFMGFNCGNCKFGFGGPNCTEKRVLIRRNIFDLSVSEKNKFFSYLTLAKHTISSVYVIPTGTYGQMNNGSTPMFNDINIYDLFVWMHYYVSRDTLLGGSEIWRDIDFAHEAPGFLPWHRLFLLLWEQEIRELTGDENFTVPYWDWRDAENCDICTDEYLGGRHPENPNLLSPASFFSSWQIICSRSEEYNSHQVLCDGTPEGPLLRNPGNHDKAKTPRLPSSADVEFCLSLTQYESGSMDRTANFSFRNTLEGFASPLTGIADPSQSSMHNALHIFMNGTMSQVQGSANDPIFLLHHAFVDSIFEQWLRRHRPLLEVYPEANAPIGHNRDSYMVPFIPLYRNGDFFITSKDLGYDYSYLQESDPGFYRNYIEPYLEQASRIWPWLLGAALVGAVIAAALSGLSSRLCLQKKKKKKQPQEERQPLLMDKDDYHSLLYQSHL
Procedure: The experiments were: B16 melanin cells were adjusted with DMEM cell culture medium containing 10% fetal bovine serum, 100 U/mL penicillin and 100 U/mL streptomycin to reach a density of 1×10^5/mL, and were seeded into 6-well cell culture plates (3 mL per well). After cultured at 37° C., 5% CO2 for 24 h, the test sample (Example 2) was added. After 3 days, the supernatant was discarded, and the cells were washed with PBS for twice. After each well was added 180 μL PBS solution containing 1% (v/v) Triton X-100, the cells were subjected to ultrasonication under ice bath, then each well was added 20 μL 10 mmol/L of L-DOPA, incubated at 37° C. for 60 min. A 1500 r/min centrifugation was conducted for 5 min. 100 μL was respectively taken and transferred to a 96-well cell culture plate, and tested for absorbance at 492 nm via a microplate reader to calculate the inhibitory rate for intracellular tyrosinase activity. The control wells were added with the same volume amount of PBS as that of the sample. The positive control employs arbutin, at an effect concentration of 200 μM. Inhibition rate=(1−A/B)×100%
wherein A is the mean absorbance of the wells containing drug (i.e., sample wells or positive control wells), B is the mean absorbance of the control wells.

[2] = system: melanoma cells from B16 mice; test: Effect on melanin content (melanin synthesis) in melanoma cells from B16 mice; assay type: cell-based; conditions: Mus musculus, 72 h, 3 days, n = 4, read-out: The inhibitory rate for melanin synthesis
Procedure: The experiments were: melanoma cells from B16 mice (purchased from Shanghai Fuxiang Biotechnology Co., Ltd.) were adjusted with DMEM cell culture medium containing 10% fetal bovine serum, 100 U/mL penicillin and 100 U/mL streptomycin to reach a density of 1×10^5/mL, and were seeded into 6-well cell culture plates (3 mL per well). After cultured at 37° C., 5% CO2 for 24 h, the test sample (Example 2) was added. After 3 days, the supernatant was discarded, and the cells were washed with PBS, then added with trypsin to degest the cells for 3 min (0.5 mL per well). Afterwards, 2 mL cell culture medium was added to terminate the digestion reaction, and cells of each group were counted. After centrifugation, the supernatant was discarded, and 0.5 mL of 1 mol/L NaOH solution was added. After vibrated for 1 h, a 1500 r/min centrifugation was conducted for 5 min. 200 μL was respectively taken and transferred to a 96-well cell culture plate, and tested for absorbance at 450 nm via a microplate reader to calculate the inhibitory rate for melanin synthesis. In the experiment, the control wells were added with the same volume amount of PBS as that of the sample. […]
A is the absorbance of the wells containing drug (i.e., sample wells or positive control wells), B is the number of cells in the wells containing drug, C the absorbance of the control wells, D is the number of cells in control wells.

- inhibition at 400 µM [1]: 49 ± 9.44%
SMILES: OC[C@H]1O[C@@H](Oc2ccc(O)cc2)[C@H](O)[C@@H](O)[C@@H]1O [Arbutin]
- inhibition at 200 µM [2]: 46.7 ± 10%
